Test results from EP0551200A1, “Protein phosphatase inhibitors for use in therapy” (priority 1992, dated 1993).
Like-named read-outs stand apart in the source and are kept apart here.

Assays:
Egr-1 mRNA [1] = experiment: Northern blot analysis of Egr-1 mRNA induction in quiescent primary human fibroblasts; assay type: cell-based
Protocol: Quiescent human fibroblasts were incubated with TNF (500 units/ml) (a) or OA (500 nM) (b) for 0, 30, 60 min after which total cellular RNA was extracted. Blots of RNA from these cells were hybridized to radiolabeled (10⁶ cpm/ml) Egr-1 cDNA probe. c, the blot in b was stripped and reprobed with c-jun cDNA. Note: Egr-1 mRNA probe was not completely stripped from the blot. The autoradiograph of the blot is presented. d, regularly maintained cells were incubated wither with no additions (control, 0 time) or with OA for 1, 3, 5, 7 h and Northern analysis was carried out with an IL-6 cDNA probe (ATCC, Rockville, MD, US).
(§1) 10 µg of RNA was applied to each lane and subjected to Northern blot analysis using an Egr-1 specific cDNA probe [1.6 kb Bgl II fragment (Sukhatme et al, Cell 53, 37-48, 1988)]. The same blots were rehybridized with actin or GADPH cDNA for normalizing the amount of RNA loaded. The blots were dried and autoradiographed. • (A). Time course of okadaic acid-induced Egr-1 and c-jun messages in primary human fibroblasts. Quiescent human fibroblasts were induced with 1 µM of okadaic acid for the time periods indicated. […] Time course of okadaic acid-induced Egr-1 message in Balb/c 3T3 cells. Quiescent Balb/c 3T3 cells were induced with okadaic acid (0.5µM) for the times indicated. • (C). Concentration dependent induction of Egr-1 message by okadaic acid in Balb/c 3T3 cells. Quiescent Balb/c 3T3 cells were induced with the indicated concentrations of okadaic acid for 1 h. As controls, different concentrations of DMSO were included. These corresponded to the amounts present in 0.25 µM okadaic acid (0.025% dimethyl sulphoxide (DMSO)) 0.5 µM okadaic acid (0.05% DMSO) and 1 µM okadaic acid (0.1%). • (D). Concentration dependent and time course induction of Egr-1 message by calyculin A. Quiescent Balb/c 3T3 cells were induced with different concentrations of calyculin A for 1 h. Northern analysis of this dose-dependent induction by calyculin A is shown on the left panel of the figure. […] Northern analysis of this time course induction by calyculin A is shown in the right panel of the figure. The same blot was rehybridized with pCMV-fos (Curran et al, Oncogene 2, 79-84, 1987) and pCMV-jun (Rauscher et al, 1988) shown in the middle panel. The blot was dried and autoradiographed.
Cells were incubated with either 0.5 µM of okadaic acid or 10 µg/ml of cycloheximide as well as with 0.5 µM of okadaic acid and 10 µg/ml of cycloheximide for 1.5, 3 or 6 h. Cells were harvested, RNA isolated and subjected to Northern blot analysis. The blot was probed with Egr-1 or actin cDNA.
Quiescent primary human fibroblasts were incubated with okadaic acid (OA) or TPA for 1 or 3 h. The concentrations of OA and TPA were 0.5 µM and 120 ng/ml, respectively. The concentration of 1-(5-isoquinolinylsulfonyl)-2-methylpiperazine dihydrochloride (H7) and N-(2-guanidinoethyl)-5-isoquinolinesulphonamide dihydrochloride (HA1004) used was 25 µM. The cells were pre-treated for 15 min with H7 or HA1004 before they were induced by OA or TPA for 1 or 3 h. Cells were harvested, RNA was isolated and subjected to Northern blot analysis. The blot was probed with Egr-1 or GADPH cDNA. • (B). As a positive control, primary human fibroblasts were treated with TPA (30 ng/ml) for 1 h (1st lane). The fibroblasts were also pre-treated with H7 (25 µM) or HA1004 (25 µM) for 15 min before treatment with TPA for 1 h (2nd and 3rd lanes respectively). […] The blot was probed with Egr-1 or actin cDNA. • (C). Quiescent Balb/c 3T3 cells were incubated with OA, TPA or dBt-cAMP for 1 h or pre-treated with H7 (25 µM) or HA1004 (25 µM) for 15 min and then incubated with each of the agonists for 1 h. Cells were harvested, RNA was isolated and subjected to Northern blot analysis. […]

Egr-1 mRNA [2] = experiment: cells; assay type: cell-based, mouse
Protocol: as §1
Quiescent primary human fibroblasts were incubated with okadaic acid (OA) or TPA for 1 or 3 h. The concentrations of OA and TPA were 0.5 µM and 120 ng/ml, respectively. The concentration of 1-(5-isoquinolinylsulfonyl)-2-methylpiperazine dihydrochloride (H7) and N-(2-guanidinoethyl)-5-isoquinolinesulphonamide dihydrochloride (HA1004) used was 25 µM. The cells were pre-treated for 15 min with H7 or HA1004 before they were induced by OA or TPA for 1 or 3 h. Cells were harvested, RNA was isolated and subjected to Northern blot analysis. The blot was probed with Egr-1 or GADPH cDNA. • (B). As a positive control, primary human fibroblasts were treated with TPA (30 ng/ml) for 1 h (1st lane). The fibroblasts were also pre-treated with H7 (25 µM) or HA1004 (25 µM) for 15 min before treatment with TPA for 1 h (2nd and 3rd lanes respectively). […] The blot was probed with Egr-1 or actin cDNA. • (C). Quiescent Balb/c 3T3 cells were incubated with OA, TPA or dBt-cAMP for 1 h or pre-treated with H7 (25 µM) or HA1004 (25 µM) for 15 min and then incubated with each of the agonists for 1 h. Cells were harvested, RNA was isolated and subjected to Northern blot analysis. The concentration of each agonist used was as follows: lane a: 0.5 µM of OA, lane b: 100 ng/ml of TPA, lane c: 1 mM of dBt-cAMP, lane d: H7 plus OA (0.5 µM), lane e: H7 plus TPA (100 ng/ml), lane f: H7 plus dBt-cAMP (1 mM), lane g: HA1004 plus OA (0.5 µM), lane h: HA1004 plus TPA (100 ng.ml), lane i: HA1004 plus dBt-cAMP (1mM). The blot was probed with Egr-1 or GADPH cDNA.
Cell Cultures and Reagents. Human diploid foreskin fibroblasts were a gift from Dr J Vilcek (New York University, New York). The cells were grown in MEM supplemented with 10% fetal bovine serum (Hyclone, Logan, UT, US), Mouse Balb/c 3T3 cells were purchased from the American Type Culture Collection and grown in Dulbecco's MEM (DMEM) supplemented with 10% fetal bovine serum. Okadaic acid, calyculin A, H7, and HA1004 were purchased from Biomol Research Laboratories (Plymouth Meeting, PA, US). TPA, puromycin and dBt-cAMP were purchased from Sigma (St Louis, MO, US) 1 mM stock solutions of okadaic acid or calyculin A were solubilized in DMSO. [³²P]orthophosphate and other radioactive chemicals were purchased from Du Pont-New England Nuclear (Boston, MA). […]

c-fos and c-jun = experiment: Northern blot analysis of c-fos and c-jun in Balb/c 3T3 cells; assay type: cell-based, mouse; conditions: 15 nM time course
Protocol: 10 µg of RNA was applied to each lane and subjected to Northern blot analysis using an Egr-1 specific cDNA probe [1.6 kb Bgl II fragment (Sukhatme et al, Cell 53, 37-48, 1988)]. The same blots were rehybridized with actin or GADPH cDNA for normalizing the amount of RNA loaded. The blots were dried and autoradiographed. • (A). Time course of okadaic acid-induced Egr-1 and c-jun messages in primary human fibroblasts. Quiescent human fibroblasts were induced with 1 µM of okadaic acid for the time periods indicated. […] Time course of okadaic acid-induced Egr-1 message in Balb/c 3T3 cells. Quiescent Balb/c 3T3 cells were induced with okadaic acid (0.5µM) for the times indicated. • (C). Concentration dependent induction of Egr-1 message by okadaic acid in Balb/c 3T3 cells. Quiescent Balb/c 3T3 cells were induced with the indicated concentrations of okadaic acid for 1 h. As controls, different concentrations of DMSO were included. These corresponded to the amounts present in 0.25 µM okadaic acid (0.025% dimethyl sulphoxide (DMSO)) 0.5 µM okadaic acid (0.05% DMSO) and 1 µM okadaic acid (0.1%). • (D). […]
Cell Cultures and Reagents. […] The blots were autoradiographed and quantitated with the aid of the Visage 2000 Image System (BioImage Products, Ann Arbor, MI, US). […]

Egr-1 protein = assay type: cell-based; conditions: 2 h treatment, data not shown
Protocol: Quiescent human fibroblasts were stimulated with MEM containing 0.5 µM okadaic acid in the presence or absence of cycloheximide (10 µg/ml) for the times indicated in Fig. 11. […] Treatment of cells with cycloheximide enhanced the induction of Egr-1 mRNA by okadaic acid at 1.5 and 3 h (Fig. 11). Similarly puromycin, like cycloheximide, also "superinduces" the induction of the Egr-1 mRNA by okadaic acid (data not shown). […] However, in view that protein phosphatase 1 (PP1) and protein phosphatase 2A (PP2A) regulate enzymes associated with cellular protein synthesis (Cohen, Annu. Rev. Biochem. 58, 453-508, 1989) the effect of okadaic acid on protein synthesis in mouse and human fibroblasts was also measured. […] By then the Egr-1 mRNA message was already induced. A corollary to this is a comparison of the amount of ³⁵S-methionine labelled Egr-1 protein immunoprecipitated by R5232 antibodies from protein phosphatase inhibitor-treated and control cells. […] Thus, the induction of the Egr-1 gene by phosphatase inhibitors is unlikely to be mediated by their late inhibitory effects on cellular protein synthesis.

human fibroblasts = experiment: Early protein phosphorylation changes in 32P-labeled cells, two-dimensional gel electrophoresis with computerized densitometry; assay type: cell-based
Protocol: The cells were then subjected to analysis by high resolution two-dimensional gel electrophoresis combined with computerized imaging as previously described (Guy et al, J. Biol. Chem. 266, 14343-14352, 1991).
Radiolabeling of Cells and Cell Lysis - For labeling with [³²P]orthophosphate cells were plated onto 90 mm plastic tissue culture dishes and incubated for 3 days for the cells to become confluent. Immediately before labeling, the media was removed and the cells were washed twice with 5 ml of phosphate- and serum-free media (150 mM NaCl, 5 mM MgCl₂, 5 mM KCl, 1.6 mM CaCl₂, 0.5% glucose, 10 mM Tris, 0.1% bovine serum albumin, pH 7.4) before the addition of 1 mCi/ml of [³²P]orthophosphate in 3 ml of the same media to each plate. The plates were incubated at 37°C in a humidified CO₂ incubator for 2 h before the addition of the okadaic acid or other agonists at the concentrations and for the times indicated in the figures and table. The agonists were reconstituted in aqueous buffered solution or in dimethyl sulfoxide. […] At the completion of labeling the media was removed, and the cells were rapidly washed twice with 5 ml of ice-cold phosphate-buffered saline before being solubilised in 200 µl of cytosol extraction buffer (10mM Tris-HCl, 50 mM EDTA, 50 mM NaCl, 30 mM sodium pyrophosphate, 50 mM NaF, 100µM Na₃VO₄, 0.65% Nonidet P-40, 2 mM leupeptin, 2mM phenylmethylsulfonyl fluoride, pH 7.4). The lysate was collected and centrifuged for 5 min at 14,000 rpm. The pellet containing the nuclear fraction (including the cytoskeletal-membrane fractions) was separated from the cytosolic fraction. Both fractions were lyophilized.
Two-dimensional Gel Electrophoresis - The lyophilized fractions (each of approximately 12 µg) were subjected to isoelectric focusing for 18,000 V/h with pH 3-10 ampholytes using the Millipore Investigator two-dimensional electrophoresis system (Millipore). Following this, the first-dimension gel was extruded and equilibrated in SDS buffer for 2 min before being loaded onto the second dimension 12.5% SDS-polyacrylamide gel. The gel was fixed, dried and ³²P-labeled polypeptides were located by autoradiography by using intensifying screens at -80°C. For measurement of the pH profile, carbamylated protein standards (Pharmacia LKB Biotechnology Inc.) were co-run on duplicate gels and related to proteins of known pI on previously calibrated samples. Molecular weight marker proteins from Sigma were detected by Coomassie Blue staining and marked on the autoradiogram. ³²P-Labeled 27 hsp complex prepared from human fibroblasts heat shocked at 43°C for 30 min was also used as a marker.
Quantitative Determination of Protein Phosphorylation - The amount of protein phosphorylation on autoradiographs derived from cytosolic membrane or antibody-precipitated preparations containing equal amounts of protein were analyzed by computerized densitometry using a Visage 2000 Image analysis system (BioImage Products, Ann Arbor, MI, US).
The ³²P-labeled protein spots are resolved and detected by autoradiography of the high definition two-dimensional gel electrophoresis of cytosolic extracts prepared from ³²P-labeled human fibroblasts. The radioactive spots (each representing one or more phosphoproteins) are analyzed by computerized densitometry. Each spot is arbitrarily assigned a number. […]

Compound: CC1CNCCN1S(=O)(=O)c1cccc2cnccc12.Cl.Cl (stereo not shown) [H7, 1-(5-isoquinolinylsulfonyl)-2-methylpiperazine dihydrochloride]
- block of induction of Egr-1 message by okadaic acid or TPA (in words) (Egr-1 mRNA [1]; 25 µM, 15 min pre-treatment): effectively blocked
- block of induction of Egr-1 message by okadaic acid or TPA (in words) (Egr-1 mRNA [2]; 25 µM, 15 min pre-treatment): effectively blocked

Compound: COC[C@@H]([C@H](O)[C@H](O)C(=O)NCC[C@H](C)c1nc(/C=C/C[C@@H]2O[C@]3(C[C@@H](O)[C@@H]2C)O[C@H]([C@H](C[C@H](O)[C@H](C)[C@H](O)[C@H](C)/C=C(C)/C(C)=C/C=C/C(C)=C\C#N)OC)[C@H](OP(=O)(O)O)C3(C)C)co1)N(C)C [calyculin A]
- induction of immediate-early genes c-fos and c-jun (in words) (c-fos and c-jun): also induced
- amount of 35S-methionine labeled Egr-1 protein relative to control cells (Egr-1 protein): 4 to 5 fold
- concentration up to which induction of Egr-1 mRNA increased dose-dependently (Egr-1 mRNA [2]; 1 h): up to 25 nM
- concentration inducing an equivalent fold increase in Egr-1 mRNA (Egr-1 mRNA [2]; 1 h, calyculin A compared with okadaic acid): 10 nM

Compound: C[C@@H]1C[C@@H]([C@H](O)CC2CC(=O)NC(=O)C2)C(=O)[C@@H](C)C1 [cycloheximide]
- effect on the induction of Egr-1 mRNA by okadaic acid (in words) (Egr-1 mRNA [1]): enhanced
- induction of Egr-1 mRNA by the substance alone (in words) (Egr-1 mRNA [1]): induced Egr-1 mRNA

Compound: COc1ccc(C[C@H](N)C(=O)N[C@H]2[C@@H](O)[C@H](n3cnc4c(N(C)C)ncnc43)O[C@@H]2CO)cc1 [puromycin]
- effect on the induction of Egr-1 mRNA by okadaic acid (in words) (Egr-1 mRNA [1]; 0.5 µM okadaic acid, protein synthesis inhibitor): superinduces

Compound: O-tetradecanoylphorbol 13-acetate [TPA]
- pattern of early protein phosphorylation changes (in words) (human fibroblasts): quite different from that produced by okadaic acid or TNF
